How the values were obtained:
progerin-Lamin A binding = target: T1, progerin-Lamin A binding (Homo sapiens, UniProt P02545); experiment: ELISA-based screening of LMN A-Prg binding inhibitors; settings: 0.1 mM final concentration
T1 sequence (P02545 515-614 isoform P02545-6 limits assumed): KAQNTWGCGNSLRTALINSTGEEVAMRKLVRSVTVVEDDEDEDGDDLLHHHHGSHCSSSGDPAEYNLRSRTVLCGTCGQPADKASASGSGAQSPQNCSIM
Description: To isolate a Lamin A-Prg binding inhibitor, ELISA analysis was carried out. GST-progerin-C or LMN A-His was fixed with 0.5% paraformaldehyde on 96-well plates. After drying and washing steps, lysates of HEK 293 cells transfected with GFP-Lamin A, GST-Lamin A-C, or GST-progerin-C were incubated for 1 hr with a 0.1 mM (final concentration) binding inhibitor of the present invention. The 96-well plates were washed with TBST, followed by reaction with an anti-GFP-Ab (1:10,000, 45 min), an anti-GST-Ab (1:10,000, 45 min) and an anti-mouse-IgG-HRP (1:50,000, 30 min). The plates were washed twice, and incubated with a TMB solution (Calbiochem) and then with a stop solution (1 N H2SO4). Absorbance was read on an ELISA reader.
If progerin-induced senescence is mediated by binding LMN A, an inhibitor against binding between LMN A and progerin would block the progerin-induced pathological features. […] In this regard, an ELISA-based screening system was established. Briefly, progerin immobilized in 96-well plates was incubated with candidates from a chemical library, together with GFP-LMN A. Subsequently, association between progerin and the GFP protein was monitored in the presence of the inhibitor candidates (FIG. 15A). From the chemical library, four effective different compounds (JH-0307809; JH1, JH-02051109; JH13, JH-03070708; JH4, and LG-02-089-23; LG-02) were selected (FIGS. 15B and 16B), and analyzed by the monitoring (FIG. 16A). […] Their cytotoxicity was evaluated by MTT assay (FIGS. 15B and 16C).

HGPS cells [1] = experiment: nuclear LMN A/C staining in two kinds of HGPS cells; format: cell-based, human; settings: for nuclear deformation: two kinds of HGPS cells, incubation for 24 hrs
p53 [2] = experiment: p53 induction in human fibroblasts (normal, HGPS, WS); format: cell-based
Description: Whole cell lysates were prepared in RIPA buffer, and centrifuged at 14,000 rpm for 30 min. Twenty micrograms of cell extracts were separated by SDS-polyacrylamide gel electrophoresis and transferred onto a PVDF membrane. The membrane was incubated for 1 hr to overnight at 4° C. with an appropriated primary antibody, followed by reaction with a secondary antibody at room temperature for 1 hr. Peroxidase activity was detected by chemiluminescence with an ECL kit (Intron) as recommended by the manufacturer.
The molecular mechanism of the inhibitory activity of progerin against p53 was scrutinized and p53 responsibility to DNA damage was determined in human progeria cell lines (HGPS and WS). […] WS cells are known to be insensitive to DNA damage-induced p53 activation, and as previously observed, WS cells can also express progerin.
Keeping in mind the fact that p53 is tightly regulated by the MDM2 pathway, the engagement of progerin with MDM2-mediated p53 suppression was also tested by treatment of Nutlin-3, which is a blocker between MDM2 and p53 and induces p53 expression. […] Considering the results, the elevated expression of progerin would be involved in DNA damage-induced p53 activation and MDM2-mediaeted p53 suppression.

[3] = system: transcriptional activity of p53; experiment: p21-luc luciferase assay; format: cell-based; settings: C2 cells, Adr treatment
Description: To measure p21 activity, a p21-luc vector was co-transfected, together with si RNAs, to 293 cells for 24 hrs. The cells were washed and treated with adriamycin for 2 hrs. After they were washed with a wash buffer (Promega), the cells were lyzed in a lysis buffer. Luciferase activity was determined using a luminometer.
To confirm the re-activation of p53 in response to progerin knock down, the transcriptional activity of p53 was monitored using a p21-luc system.

p53 [4] = experiment: p53 expression and DNA damage response in RCC cell lines; format: cell-based, human; settings: C2 and Caki-2 cell lines
Description: In addition, p53 expression and responsibility for DNA damage in Caki-2 were determined after transfection with si-progerin.

RCC = experiment: nuclear irregularity of RCC (Example 2); format: cell-based, human
Description: Based on our observation that the nuclear irregularity of RCC is caused by progerin and improved by FTI, the JH compounds were also examined for effect on RCC. Like FTI, the JH compounds ameliorated nuclear irregularity (FIG. 25). […] They were tested in vivo.

Prg-LMN A binding = target: T2, Prg-LMN A binding (Homo sapiens, UniProt P02545); settings: GST-pull down, cell lysate
T2 sequence (P02545 515-614 isoform P02545-6 limits assumed): T1 sequence (P02545 515-614 isoform P02545-6 limits assumed)
Description: For the binding assay, GST-bead-fused Lamin A-C or progerin-C was incubated for 2 hrs at room temperature with a lysate of 293 cells transfected with the lamin A-N terminal region, or GFP-Lamin A, B or C. After washing twice with PBS and once with RIPA, the precipitates were collected, and subjected into SDS-PAGE and Western blot analysis with anti-GFP, His, and GST antibodies.
The candidates were examined for inhibitory activity against LMN A-progerin binding by an in vitro binding assay. […] Also, the compounds were analyzed for in vivo cellular effect by performing IP with a progerin antibody in HGPS fibroblasts after treatment with them for 24 hrs.

HGPS and normal cells = experiment: senescence-specific β-galactosidase staining (SA-β-Gal); format: cell-based, human
Description: For senescence-specific acidic-β-galactosidase activity staining, cells were washed once with PBS (pH 7.2) and fixed with PBS containing 0.5% glutaraldehyde. After being washed with PBS, the cells were stained overnight at 37° C. in an X-gal solution (Senescence β-Galactosidase Staining kit; Cell Signaling Technology).

LMN A-progerin binding = LMN A-progerin binding (Homo sapiens, UniProt P02545); settings: in vitro binding assay
HGPS cells [5] = experiment: cell counting, HGPS cells; format: cell-based, human
Description: (§1) For cell counting, cells were harvested from media, and stained for 10 min at room temperature with Trypan blue. Viable cells were counted using a hemocytometer.

[6] = target: self association of LMN A (Homo sapiens, UniProt P02545)
[7] = system: association between LMN A and LMN B
normal fibroblasts = experiment: cell counting, normal fibroblasts; format: cell-based, human
Description: as §1

Chain of self association of LMN A (P02545 whole entry): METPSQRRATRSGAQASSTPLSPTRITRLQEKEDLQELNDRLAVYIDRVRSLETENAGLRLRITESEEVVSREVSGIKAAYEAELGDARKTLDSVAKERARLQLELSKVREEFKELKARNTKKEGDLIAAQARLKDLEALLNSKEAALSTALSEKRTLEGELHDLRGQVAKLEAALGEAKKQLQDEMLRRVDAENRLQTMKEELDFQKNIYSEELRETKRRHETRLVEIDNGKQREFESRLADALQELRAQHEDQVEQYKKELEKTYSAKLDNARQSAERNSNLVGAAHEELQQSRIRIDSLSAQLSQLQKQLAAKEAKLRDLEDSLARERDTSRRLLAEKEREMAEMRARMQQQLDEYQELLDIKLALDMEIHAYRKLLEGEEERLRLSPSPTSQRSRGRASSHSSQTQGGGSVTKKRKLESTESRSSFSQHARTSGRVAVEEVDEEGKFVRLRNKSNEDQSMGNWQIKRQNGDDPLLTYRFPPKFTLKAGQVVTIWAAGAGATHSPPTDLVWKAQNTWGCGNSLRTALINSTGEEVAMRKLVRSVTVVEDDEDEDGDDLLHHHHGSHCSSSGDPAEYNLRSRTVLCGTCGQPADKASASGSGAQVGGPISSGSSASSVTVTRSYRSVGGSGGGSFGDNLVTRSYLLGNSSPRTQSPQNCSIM
Description for LMN A mutants: GFP-fused progerin and GFP-fused Lamin A expression vectors were kindly provided by Scaffidi and Misteli (NCI). GRP-fused Lamin B and Lamin C were granted from Lammerding J (Brigham and Women's Hospital/Harvard Medical School). A mutant of Lamin A was granted from Tesson F (University of Ottawa). A Myc-ARF vector and a non-tagged progerin vector were purchased from Addgene. For mammalian expression of these vectors, transfection was performed with the aid of Jetpei (Polyplus). In 150 nM NaCl solution, 1.5 μg of each vector was mixed with 1.5 μl of the Jetpei reagent. After incubation for 15 min at room temperature, the mixture was added to the cells. After 3 hrs, the 10% FBS medium was replaced by a serum-free medium.
Effects of the JH chemicals on LMN A mutants were investigated.

Structure (SMILES): CC1(C)Oc2cc3oc(=O)ccc3cc2C[C@@H]1OC(=O)CCc1ccc(O)c(O)c1 [JH1, (7S)-(+)-3-(3,4-Dihydroxyphenyl)propionic acid, 8,8-dimethyl-2-oxo-6,7-dihydro-2H,8H-pyrano[3,2-g]chromen-7-yl-ester]
- inhibition of association between immobilized progerin and GFP-LMN A (screening) (progerin-Lamin A binding): effective
- nuclear deformation (HGPS cells [1]): ameliorated the nuclear deformation

Structure (SMILES): COc1cccc2c1C(=O)c1c(O)c3c(c(O)c1C2=O)C[C@@](O)(C(=O)CO)C[C@@H]3O[C@H]1C[C@H](N)[C@H](O)[C@H](C)O1 [Adr, adriamycin]
- p53 induction (p53 [2]; HGPS cells): did not show the induction of p53
- p53 induction (p53 [2]; Werner syndrome (WS) cells): did not show the induction of p53
- p53 induction (p53 [2]; normal cells): obviously increased
- p21-luc expression / activation [3]: did not increase p21-luc expression

Structure (SMILES): COc1ccc(C2=N[C@@H](c3ccc(Cl)cc3)[C@@H](c3ccc(Cl)cc3)N2C(=O)N2CCNC(=O)C2)c(OC(C)C)c1 [Nutlin-3]
- p53 induction (p53 [2]; HGPS cells): partial response
- p53 induction (p53 [2]; normal cells): induced p53 obviously
- p53 induction (p53 [4]): did not induce p53 obviously

Structure (SMILES): COC(=O)[C@H](CCSC)NC(=O)c1ccc(NC[C@@H](N)CS)cc1-c1ccccc1 [FTI]
- nuclear irregularity of RCC (RCC): improved
- blocking of Prg-LMN A interaction (Prg-LMN A binding): block the interaction, but slightly

Structure (SMILES): CC1(C)Oc2cc3oc(=O)ccc3cc2C[C@@H]1OC(=O)C=Cc1cccnc1 [JH4, (7S)-(+)-3-(3-Pyridyl)-acrylic acid, 8,8-dimethyl-2-oxo-6,7-dihydro-2H,8H-pyrano[3,2-g]chromen-7-yl-ester]
- inhibition of association between immobilized progerin and GFP-LMN A (screening) (progerin-Lamin A binding): effective
- SA-β-gal (HGPS and normal cells): could suppress SA-β-gal
- inhibitory activity against LMN A-progerin binding (LMN A-progerin binding): block LMN A-progerin binding
- cell proliferation (HGPS cells [5]): promoted cell proliferation
- disruption of self association of LMN A [6]: did not disrupt
- disruption of association between LMN A and LMN B [7]: did not disrupt
- cell proliferation (normal fibroblasts): induced cell proliferation
- effect on LMN A mutants related with laminopathy (LMN A mutants): did not show a favorable effect
- nuclear deformation, effect relative to the other compounds (HGPS cells [1]; HGPS cells (FIG. 17D)): more obvious effect than the other compounds
- nuclear deformation (HGPS cells [1]): ameliorated the nuclear deformation

Structure (SMILES): CC1(C)Oc2ccc3oc(=O)ccc3c2C[C@@H]1OC(=O)C=Cc1ccc(O)c(O)c1 [LG-02, (6S)-(−)-3-(3,4-Dihydroxy-phenyl)-acrylic acid, 7,7-dimethyl-2-oxo-5,6-dihydro-7H-pyrano[3,2-f]chromen-6-yl-ester]
- inhibition of association between immobilized progerin and GFP-LMN A (screening) (progerin-Lamin A binding): effective

Structure (SMILES): CC1(C)Oc2cc3oc(=O)ccc3cc2C[C@@H]1OC(=O)C=Cc1ccc(O)c(O)c1 [JH13, (7S)-(+)-3-(3,4-Dihydroxy-phenyl)-acrylic acid, 8,8-dimethyl-2-oxo-6,7-dihydro-2H,8H-pyrano[3,2-g]chromen-7-yl-ester]
- inhibition of association between immobilized progerin and GFP-LMN A (screening) (progerin-Lamin A binding): effective
- inhibitory activity against LMN A-progerin binding (LMN A-progerin binding): block LMN A-progerin binding
- blocking of Prg-LMN A interaction (Prg-LMN A binding): blocking ability of JH4 and JH13 was also demonstrated
- nuclear deformation (HGPS cells [1]): ameliorated the nuclear deformation

From patent US9249153B2, “Pharmaceutical composition for treating aging-associated diseases, containing progerin expression inhibitor as active ingredient, and screening method of said progerin expression inhibitor” (PUSAN NATIONAL UNIVERSITY INDUSTRY-UNIVERSITY COOPERATION …, priority 2011, dated 2016)
